In brackets after ≈: the same amount, converted by molar mass. Where two headings read alike, the source gives them in different places.

For data set [1], the system named is M. tuberculosis H37Rv. As to the kind of experiment: Resazurin MIC assay, pan-sensitive strain. As to conditions: Mycobacterium tuberculosis, 48 h. The class given is cell-based. (In general: Resazurin is reduced to fluorescent resorufin, in cell work by metabolically active cells.)
Data set [2] is described as follows: Precipitation noted during the MIC assay. In kind it is physicochemical. As to conditions: observed in the MIC assay plates, 7H9 medium. As to the method:
Stock solutions were prepared at 3.2 mg/ml which were then diluted as indicated below: 1. 20 µl of the 3.2 mg/ml stock of the test compound were added to a 96-well microtiter plate. 2. 2-fold dilutions were made by the addition of 20 µl of diluent.
3. Each dilution was further diluted 1:10 in sterile water (10 µl of dilution to 90 µl of sterile water). Note: The additional 10-fold dilution in water is required when DMSO is used as solvent to minimize toxicity to the bacteria. For uniformity in the assay procedure, this dilution step was used even if water or other solvents were used.
The following steps are followed in preparing the 96-wcll plates: • 1. 6.25 µl of each dilution were transferred to duplicate 96-well test plates. • 2. 93.75 µl of the cell suspension (∼ 10^4 bacteria) in 7H9 medium were added to the test plates. • 3. Positive, negative, sterility and resazurin controls were tested: • a. Positive controls include: appropriate antibiotics for each resistant strain and rifampicin and isoniazid for 113 7Rv • b. Negative controls include: • i. cell culture with solvent and water • i.i. cell culture only • c. Sterility controls include: • i. medium only • ii. medium with solvent and water • d. […] This control plate is needed to verify whether the compound reacts with resazurin that could possibly elicit fluorescence. • 4. […]

The test system of data set [3] is M. tuberculosis H37Rv. As to the kind of experiment: MBC assay with H37Rv. In kind it is cell-based. As to conditions: Mycobacterium tuberculosis, 504 h; performed with H37Rv; concentration that inhibits ≥ 99.9% of the initial bacterial inoculum; 3 weeks on 7H10 agar at 37°C. As to the method: The MBC assay with H37Rv was performed as an adjunct to the MIC assay and was used to determine the concentration of drug that is lethal to the target bacterium in vitro. A small aliquot (i.e., 10 µl) was removed from appropriate dilutions in the 96-well plate used to determine the MIC value with subsequent streaking on 7H10 agar plates. Five wells were selected, representing the well yielding the MIC value and 2 wells above and below the well that yielded the MIC value. After 3 weeks of incubation at 37°C, the agar plates were inspected for the presence or absence of growth. The MBC value is the concentration in µg/ml that inhibits ≥ 99.9% of the initial bacterial inoculum. Antimicrobials are usually regarded as bactericidal if the MBC is no more than four times the MIC. while the bacteriostatic agents have MIC values that are much lower than the MBC.

The mark [4] stands for this setting: Table 3, standard test strain H37Rv, read-out: MIC Value (µg/ml) H37Rv*.
[5] abbreviates: H37RV, Table 2, Resazurin MIC assay, […], read-out: MIC H37Rv.

Turning to `O=C1Nc2ccc(Cl)cc2C1=NNC(=O)c1ccncc1` [Compound 3a], the MIC with M. tuberculosis H37Rv [1] (setting [4]) and in the data set on M. tuberculosis H37Rv [1] (setting [5]) was 1.25 µg/mL (≈ 4.16 µM) in each case. Besides, the “Comments (precipitation)” value in data set [2] is “Precipitation observed at 10 µg/ml”. Besides, the MBC (in general, the smallest concentration meeting the test's criterion for killing) against M. tuberculosis H37Rv [3] was 1.25 µg/mL (≈ 4.16 µM).

With `O=C1Nc2ccc(F)cc2C1=NNC(=O)c1ccncc1` [Compound 3b, reference compound], in the data set with M. tuberculosis H37Rv [1] (setting [5]), the MIC was found to be 10 µg/mL (≈ 35.2 µM).

Regarding `O=C1Nc2ccc([N+](=O)[O-])cc2C1=NNC(=O)c1ccncc1` [Compound 3c], the MIC in the data set with M. tuberculosis H37Rv [1] (setting [4]) and in the data set with M. tuberculosis H37Rv [1] (setting [5]) was 0.156 µg/mL (≈ 0.501 µM) each time. Besides, in the data set with M. tuberculosis H37Rv [3], the MBC is 0.31 µg/mL (≈ 0.996 µM).

Turning to `O=C1Nc2ccc(F)cc2C1=NNC(=O)c1ccc([N+](=O)[O-])o1` [Compound 3d], in the data set on M. tuberculosis H37Rv [1] (setting [5]), the MIC amounted to 5 µg/mL (≈ 15.7 µM).

On to `O=C1Nc2ccc(OC(F)(F)F)cc2C1=NNC(=O)c1ccc([N+](=O)[O-])o1` [Compound 3e], for which the MIC in the data set with M. tuberculosis H37Rv [1] (setting [4]) and with M. tuberculosis H37Rv [1] (setting [5]) was 2.5 µg/mL (≈ 6.51 µM) in each case. This molecule showed an MBC in the data set with M. tuberculosis H37Rv [3] of 2.5 µg/mL (≈ 6.51 µM).

With `O=C(NN=C1C(=O)N(c2ccccc2)c2ccccc21)c1ccc([N+](=O)[O-])o1` [Compound 3f], the MIC in the data set with M. tuberculosis H37Rv [1] (setting [5]) is 5 µg/mL (≈ 13.3 µM).

Turning to `O=C(NN=C1C(=O)N(Cc2ccccc2)c2ccccc21)c1ccc([N+](=O)[O-])o1` [Compound 3g], the MIC in the data set with M. tuberculosis H37Rv [1] (setting [4]) and in the data set on M. tuberculosis H37Rv [1] (setting [5]) was 0.156 µg/mL (≈ 0.4 µM) throughout. In data set [2], the “Comments (precipitation)” value is “Precipitation observed at 10 µg/ml”. The MBC with M. tuberculosis H37Rv [3] came out at 0.156 µg/mL (≈ 0.4 µM).

On to `O=C(NN=C1C(=O)N(Cc2ccccc2)c2ccc(Cl)cc21)c1ccc([N+](=O)[O-])o1` [Compound 3h], for which the MIC in the data set with M. tuberculosis H37Rv [1] (setting [5]) came to 0.312 µg/mL (≈ 0.734 µM).

As for `O=C(NN=C1C(=O)N(Cc2ccccc2)c2ccc(F)cc21)c1ccc([N+](=O)[O-])o1` [Compound 3i], in the data set with M. tuberculosis H37Rv [1] (setting [5]), the MIC amounted to 0.156 µg/mL (≈ 0.382 µM).

Take `Cc1ccc2c(c1)C(=NNC(=O)c1ccc([N+](=O)[O-])o1)C(=O)N2Cc1ccccc1` [Compound 3j]: the MIC with M. tuberculosis H37Rv [1] (setting [5]) was determined as 1.25 µg/mL (≈ 3.09 µM).

Regarding `NNC(=O)c1ccncc1` [Isoniazid, reference compound], the MIC with M. tuberculosis H37Rv [1] (setting [4]) and in the data set with M. tuberculosis H37Rv [1] (setting [5]) was 0.063 µg/mL (≈ 0.459 µM) in each case.

For `CO[C@H]1/C=C/O[C@@]2(C)Oc3c(C)c(O)c4c(O)c(c(/C=N/N5CCN(C)CC5)c(O)c4c3C2=O)NC(=O)/C(C)=C\C=C\[C@H](C)[C@H](O)[C@@H](C)[C@@H](O)[C@@H](C)[C@H](OC(C)=O)[C@@H]1C` [Rifampin, reference compound], the MIC with M. tuberculosis H37Rv [1] (setting [4]) was 0.0125 µg/mL (≈ 0.0152 µM); with M. tuberculosis H37Rv [1] (setting [5]), 0.0031 µg/mL (≈ 0.00377 µM).

Source of the values: EP2604600A1, “Isatin derivatives and their use in therapy” (priority 2011, dated 2013).
